Results on 3 compounds are retold here after patent US4954347A (priority 1988, dated 1990).

Data set [1] relates to beta-adrenergic. Conditions: cited from earlier work.
The conditions of data set [2]: human, in vivo; cited from earlier work.
Data set [3] deals with fast inward sodium channels. The note with it: hydrochloride; cited from earlier work.
The test system of data set [4] is calcium. Conditions: cited from earlier work.
Data set [5] deals with supraventricular and ventricular arrhythmias. The note with it: in vivo; hydrochloride; cited from earlier work.
The conditions of data set [6]: one patient; quinidine concomitantly with propafenone.
Data set [7] deals with electrically induced arrhythmias, ventricular tachycardias, circus-movement flutter. The note with it: experimental animals; cited from earlier work.

Entries after “also recorded” stand apart in the source; their conditions may differ. Counter-ions that a name gives are not always drawn. Like-named read-outs stand apart in the source and are kept apart here.

Turning to `COCCc1ccc(OCC(O)CNC(C)C)cc1` (centres unmarked) [metoprolol], the beta-blocking activity result in data set [1] is listed as “primarily a beta-adrenergic blocking agent”. For the same compound, in data set [2], the half-life is 3 to 7 h and the systemic bioavailability is on record as 40-50%.

Regarding `CCCNCC(O)COc1ccccc1C(=O)CCc1ccccc1` (centres unmarked) [propafenone, 2'-[3-(prophylamino)-2-(hydroxy)-(propoxy)-3-phenylpropiophenone hydrochloride], the “blockade of fast sodium channels” value in data set [3] is on record as “blocks fast inward sodium channels; also recorded: blockade of the fast sodium channel”. The beta-blocking activity entry in data set [1] (hydrochloride) is reported as “only a weak beta-blocker”. The calcium antagonist activity entry in data set [4] is on record as “weak calcium antagonist activity”. Further, the “suppression of supraventricular and ventricular arrhythmias” value in data set [5] was “effective against recurrent supraventricular and ventricular arrhythmias; also recorded: effective in suppressing both supraventricular and ventricular arrhythmias”.

With `C=C[C@H]1C[N@@]2CC[C@H]1C[C@@H]2[C@@H](O)c1ccnc2ccc(OC)cc12` [quinidine], the “effect on the blood levels of propafenone” value in data set [6] is recorded as “very pronounced effect”. Also, in data set [7], the “"late" ventricular tachycardias following coronary artery occlusion” value was “prevent or terminate”, the circus-movement flutter result is recorded as “terminate or prevent” and the “threshold for electrically induced arrhythmias” value is on record as “raise the threshold”.

By half-life is commonly meant the time needed for the level to fall by half in the phase considered.
